Calls of active or inactive are those of the source. No cut-off for these calls is given here.
Experiments:
[1] = Toxicity in C57BL/6 mouse assessed as effect on social behavior up to 50 mg/kg, ip administered for 5 days/week for two cycles; type: organism-based; conditions: in vivo, 120 h
[2] = Selectivity ratio of IC50 for N-terminal GST-tagged human HDAC7 (518 to end residues) expressed in baculovirus infected sf9 insect cells to IC50 for human N-terminal GST-tagged HDAC6 expressed in baculovirus infected sf9 insect cells
[3] = Toxicity in C57BL/6 mouse assessed as effect on WBC level at 50 mg/kg, ip administered for 5 days/week for two cycles and measured 60 mins post last dose by beckman coulter counting method relative to control; type: organism-based; conditions: in vivo, 1 h
[4] = Toxicity in C57BL/6 mouse assessed as effect on postural changes up to 50 mg/kg, ip administered for 5 days/week for two cycles and measured daily starting from day 1; type: organism-based; conditions: in vivo, 120 h
[5] = Oral bioavailability in CD-1 mouse at 5.2 mg/kg measured within 6 hrs by LC-MS/MS analysis; type: ADME, organism-based; conditions: in vivo
[6] = target: T1, Protein deacetylase HDAC6 (Homo sapiens) (UniProt Q9UBN7); assay: Inhibition of HDAC6 in HEK293 cells harboring human Foxp3 assessed as induction of Foxp3 hyperacetylation in whole cell lysates at 500 nM incubated for 6 hrs by SDS-PAGE based Western blot analysis; type: subcellular; conditions: Lysate
T1 sequence (whole entry): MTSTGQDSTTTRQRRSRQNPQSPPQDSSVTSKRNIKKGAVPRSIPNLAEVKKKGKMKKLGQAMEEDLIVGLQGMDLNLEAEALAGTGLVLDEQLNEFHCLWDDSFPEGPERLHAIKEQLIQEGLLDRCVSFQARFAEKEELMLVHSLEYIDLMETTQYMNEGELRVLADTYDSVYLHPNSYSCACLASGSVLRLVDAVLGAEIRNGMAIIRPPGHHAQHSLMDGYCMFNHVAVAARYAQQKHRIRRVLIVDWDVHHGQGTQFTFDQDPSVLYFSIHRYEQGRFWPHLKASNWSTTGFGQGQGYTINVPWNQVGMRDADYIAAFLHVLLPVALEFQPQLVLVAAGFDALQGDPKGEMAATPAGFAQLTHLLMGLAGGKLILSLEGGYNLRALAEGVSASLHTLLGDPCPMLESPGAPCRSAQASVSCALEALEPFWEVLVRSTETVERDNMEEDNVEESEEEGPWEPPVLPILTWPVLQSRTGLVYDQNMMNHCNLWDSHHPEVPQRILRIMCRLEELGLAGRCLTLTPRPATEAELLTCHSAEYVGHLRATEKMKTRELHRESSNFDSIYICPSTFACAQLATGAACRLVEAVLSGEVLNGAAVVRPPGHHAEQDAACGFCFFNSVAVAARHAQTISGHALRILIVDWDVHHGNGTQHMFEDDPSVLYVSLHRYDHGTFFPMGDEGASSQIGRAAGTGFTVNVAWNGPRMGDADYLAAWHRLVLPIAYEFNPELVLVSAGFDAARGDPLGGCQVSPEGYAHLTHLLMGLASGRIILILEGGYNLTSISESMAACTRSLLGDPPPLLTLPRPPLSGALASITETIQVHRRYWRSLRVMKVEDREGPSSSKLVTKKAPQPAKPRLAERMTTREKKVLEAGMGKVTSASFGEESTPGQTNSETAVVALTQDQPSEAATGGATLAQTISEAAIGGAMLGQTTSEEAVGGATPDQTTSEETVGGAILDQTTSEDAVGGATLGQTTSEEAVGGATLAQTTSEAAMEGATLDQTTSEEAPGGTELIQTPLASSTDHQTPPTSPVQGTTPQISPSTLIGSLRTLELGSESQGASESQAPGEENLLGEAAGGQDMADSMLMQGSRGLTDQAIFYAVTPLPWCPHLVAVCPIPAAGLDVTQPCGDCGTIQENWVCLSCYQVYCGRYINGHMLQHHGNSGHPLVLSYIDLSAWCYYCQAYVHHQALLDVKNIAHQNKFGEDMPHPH

Cn1c(Sc2ccc(C(=O)NO)cc2)nnc1-c1cccs1
Activity [1]: Non-Toxic
Ratio IC50 [2]: 99
Activity [3]: -30%
Activity [4]: Non-Toxic
bioavailability [5]: 26%
inhibition [6]: Active

Reference: ChEMBL document CHEMBL4414648, “Novel Benzohydroxamate-Based Potent and Selective Histone Deacetylase 6 (HDAC6) Inhibitors Bearing a Pentaheterocyclic Scaffold: Design, Synthesis, and Biological Evaluation” (J Med Chem, 2019)
